# Data taken from US8192962B2, “Processes for detecting toxic substances” (Daikin Industries, Ltd., priority 2001, dated 2012).
# Test system: Energy system protein genes
# Assay: DNA chip mRNA expression in yeast, energy system protein genes (Table 4)
# Assay type: cell-based, Saccharomyces cerevisiae S288C
# Method in brief: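 Values are treated/untreated fluorescence ratios from a whole-genome yeast DNA chip hybridized over 12 hours at 65° C with Cy3- or Cy5-labelled cDNA from poly(A) mRNA. Log-phase S288C yeast in YPD at 25° C had received a single toxic chemical for two hours, dosed to slow growth without killing.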
structure (smiles),measurement,setting,value
"C[S+](C)[O-] [(15), dimethylsulfoxide]",The level of expressed mRNA in the presence of chemical substance/The level of expressed mRNA in the absence of chemical substance,yeast gene YAL038W,3.1
same,The level of expressed mRNA in the presence of chemical substance/The level of expressed mRNA in the absence of chemical substance,yeast gene YAL054C,0.9
same,The level of expressed mRNA in the presence of chemical substance/The level of expressed mRNA in the absence of chemical substance,yeast gene YAL060W,0.9
same,The level of expressed mRNA in the presence of chemical substance/The level of expressed mRNA in the absence of chemical substance,"yeast gene YBL058W, cells incubated two hours with the chemical substance",1.8
same,The level of expressed mRNA in the presence of chemical substance/The level of expressed mRNA in the absence of chemical substance,yeast gene YBR126C,1.0
same,The level of expressed mRNA in the presence of chemical substance/The level of expressed mRNA in the absence of chemical substance,yeast gene YBR145W,1.2
same,The level of expressed mRNA in the presence of chemical substance/The level of expressed mRNA in the absence of chemical substance,yeast gene YBR196C,1.9
same,The level of expressed mRNA in the presence of chemical substance/The level of expressed mRNA in the absence of chemical substance,yeast gene YBR299W,0.6
same,The level of expressed mRNA in the presence of chemical substance/The level of expressed mRNA in the absence of chemical substance,yeast gene YCL040W,3.4
same,The level of expressed mRNA in the presence of chemical substance/The level of expressed mRNA in the absence of chemical substance,yeast gene YCR005C,0.7
same,The level of expressed mRNA in the presence of chemical substance/The level of expressed mRNA in the absence of chemical substance,yeast gene YCR012W,1.4
same,The level of expressed mRNA in the presence of chemical substance/The level of expressed mRNA in the absence of chemical substance,yeast gene YCR107W,4.8
same,The level of expressed mRNA in the presence of chemical substance/The level of expressed mRNA in the absence of chemical substance,"yeast gene YDL067C, cells incubated two hours with the chemical substance",0.7
same,The level of expressed mRNA in the presence of chemical substance/The level of expressed mRNA in the absence of chemical substance,"yeast gene YDL078C, cells incubated two hours with the chemical substance",0.5
same,The level of expressed mRNA in the presence of chemical substance/The level of expressed mRNA in the absence of chemical substance,"yeast gene YDL085W, cells incubated two hours with the chemical substance",0.7
same,The level of expressed mRNA in the presence of chemical substance/The level of expressed mRNA in the absence of chemical substance,yeast gene YDL174C,0.6
same,The level of expressed mRNA in the presence of chemical substance/The level of expressed mRNA in the absence of chemical substance,"yeast gene YDL181W, cells incubated two hours with the chemical substance",0.4
same,The level of expressed mRNA in the presence of chemical substance/The level of expressed mRNA in the absence of chemical substance,yeast gene YDL243C,4.2
same,The level of expressed mRNA in the presence of chemical substance/The level of expressed mRNA in the absence of chemical substance,"yeast gene YDR178W, cells incubated two hours with the chemical substance",0.7
same,The level of expressed mRNA in the presence of chemical substance/The level of expressed mRNA in the absence of chemical substance,yeast gene YDR231C,1.0
same,The level of expressed mRNA in the presence of chemical substance/The level of expressed mRNA in the absence of chemical substance,"yeast gene YDR298C, cells incubated two hours with the chemical substance",0.8
same,The level of expressed mRNA in the presence of chemical substance/The level of expressed mRNA in the absence of chemical substance,yeast gene YDR380W,2.4
same,The level of expressed mRNA in the presence of chemical substance/The level of expressed mRNA in the absence of chemical substance,"yeast gene YDR529C, cells incubated two hours with the chemical substance",0.5
same,The level of expressed mRNA in the presence of chemical substance/The level of expressed mRNA in the absence of chemical substance,yeast gene YEL020C,1.4
same,The level of expressed mRNA in the presence of chemical substance/The level of expressed mRNA in the absence of chemical substance,"yeast gene YEL039C, cells incubated two hours with the chemical substance",0.4
same,The level of expressed mRNA in the presence of chemical substance/The level of expressed mRNA in the absence of chemical substance,"yeast gene YEL071W, cells incubated two hours with the chemical substance",1.6
same,The level of expressed mRNA in the presence of chemical substance/The level of expressed mRNA in the absence of chemical substance,"yeast gene YER061C, cells incubated two hours with the chemical substance",0.8
same,The level of expressed mRNA in the presence of chemical substance/The level of expressed mRNA in the absence of chemical substance,yeast gene YER178W,1.8
same,The level of expressed mRNA in the presence of chemical substance/The level of expressed mRNA in the absence of chemical substance,yeast gene YFL057C,3.1
same,The level of expressed mRNA in the presence of chemical substance/The level of expressed mRNA in the absence of chemical substance,yeast gene YFR053C,0.6
same,The level of expressed mRNA in the presence of chemical substance/The level of expressed mRNA in the absence of chemical substance,yeast gene YGL062W,2.7
same,The level of expressed mRNA in the presence of chemical substance/The level of expressed mRNA in the absence of chemical substance,"yeast gene YGL191W, cells incubated two hours with the chemical substance",0.7
same,The level of expressed mRNA in the presence of chemical substance/The level of expressed mRNA in the absence of chemical substance,yeast gene YGL253W,0.8
same,The level of expressed mRNA in the presence of chemical substance/The level of expressed mRNA in the absence of chemical substance,yeast gene YGR008C,1.5
same,The level of expressed mRNA in the presence of chemical substance/The level of expressed mRNA in the absence of chemical substance,"yeast gene YGR062C, cells incubated two hours with the chemical substance, 25° C., YPD medium",0.5
same,The level of expressed mRNA in the presence of chemical substance/The level of expressed mRNA in the absence of chemical substance,"yeast gene YGR087C, cells incubated two hours with the chemical substance",3.5
same,The level of expressed mRNA in the presence of chemical substance/The level of expressed mRNA in the absence of chemical substance,"yeast gene YGR174C, cells incubated two hours with the chemical substance",0.7
same,The level of expressed mRNA in the presence of chemical substance/The level of expressed mRNA in the absence of chemical substance,yeast gene YGR192C,1.9
same,The level of expressed mRNA in the presence of chemical substance/The level of expressed mRNA in the absence of chemical substance,yeast gene YGR207C,0.6
same,The level of expressed mRNA in the presence of chemical substance/The level of expressed mRNA in the absence of chemical substance,yeast gene YGR244C,2.0
same,The level of expressed mRNA in the presence of chemical substance/The level of expressed mRNA in the absence of chemical substance,yeast gene YGR254W,2.4
same,The level of expressed mRNA in the presence of chemical substance/The level of expressed mRNA in the absence of chemical substance,yeast gene YGR256W,2.7
same,The level of expressed mRNA in the presence of chemical substance/The level of expressed mRNA in the absence of chemical substance,yeast gene YHL008C,1.8
same,The level of expressed mRNA in the presence of chemical substance/The level of expressed mRNA in the absence of chemical substance,yeast gene YHR174W,2.0
same,The level of expressed mRNA in the presence of chemical substance/The level of expressed mRNA in the absence of chemical substance,yeast gene YHR179W,2.7
same,The level of expressed mRNA in the presence of chemical substance/The level of expressed mRNA in the absence of chemical substance,yeast gene YIL045W,0.6
same,The level of expressed mRNA in the presence of chemical substance/The level of expressed mRNA in the absence of chemical substance,yeast gene YIL111W,1.1
same,The level of expressed mRNA in the presence of chemical substance/The level of expressed mRNA in the absence of chemical substance,yeast gene YIL160C,5.6
same,The level of expressed mRNA in the presence of chemical substance/The level of expressed mRNA in the absence of chemical substance,yeast gene YIL172C,1.4
same,The level of expressed mRNA in the presence of chemical substance/The level of expressed mRNA in the absence of chemical substance,"yeast gene YIR031C, cells incubated two hours with the chemical substance",0.8
